In US10906880B2, “Kind of isothiazole oxime ether-containing strobilurin derivatives and its preparation methods and application” (priority 2016, dated 2021):
Like-named read-outs stand apart in the source and are kept apart here.

Legend:
[1] = tested on: Alternaria solani; test: Fungicide activity, mycelial growth inhibition on PDA plate; format: cell-based; conditions: for inhibition at 50 µg/mL: Alternaria solani, read-out: Fungicidal activity inhibition, AS
[2] = tested on: Cercospora arachidicola; test: as above; format: cell-based; conditions: for inhibition at 50 µg/mL: Mycosphaerella arachidis, read-out: Fungicidal activity inhibition, CA
[3] = tested on: Gibberella zeae; test: microbe, parasite or virus in culture; format: cell-based; conditions: for Fungicidal activity inhibition, GZ: 50 μg/mL, G. zeae
[4] = tested on: Physalospora piricola; test: Fungicide activity, mycelial growth inhibition on PDA plate; format: cell-based; conditions: for inhibition at 50 µg/mL: 50 μg/mL, P. piricola, read-out: Fungicidal activity inhibition, PP
[5] = tested on: Botrytis cinerea; test: as above; format: cell-based; conditions: for inhibition at 50 µg/mL: Botrytis cinerea, read-out: Fungicidal activity inhibition, BC
[6] = tested on: Sclerotinia sclerotiorum; test: as above; format: cell-based; conditions: for inhibition at 50 µg/mL: Sclerotinia sclerotiorum, read-out: Fungicidal activity inhibition, SS
[7] = tested on: Rhizoctonia cerealis; test: as above; format: cell-based; conditions: for inhibition at 50 µg/mL: Ceratobasidium cereale, read-out: Fungicidal activity inhibition, RC
[8] = tested on: Pellicularia sasakii; test: as above; format: cell-based; conditions: for inhibition at 50 µg/mL: 50 μg/mL, P. sasakii, read-out: Fungicidal activity inhibition, PS
[9] = tested on: Phytophthora infestans (Mont) de Bary; test: microbe, parasite or virus in culture; format: cell-based; conditions: for inhibition at 50 µg/mL: Phytophthora infestans, read-out: Fungicidal activity inhibition, PI, 50 μg/mL, P. infestans (Mont.) de Bary; for Fungicidal activity inhibition, PI: 50 μg/mL, P. infestans (Mont.) de Bary
[10] = tested on: TMV; test: Anti-TMV activity on tobacco, curative mode; format: in vivo, tobacco mosaic virus; conditions: 100 μg/mL, tobacco; for inhibition at 100 µg/mL: Tobacco mosaic virus, read-out: Anti-TMV activity inhibition, Curative effect
[11] = tested on: TMV; test: Anti-TMV activity on tobacco, inactivation mode; format: in vivo, tobacco mosaic virus; conditions: 100 μg/mL; for inhibition at 100 µg/mL: Tobacco mosaic virus, read-out: Anti-TMV activity inhibition, Inactivation effect
[12] = tested on: TMV; test: Anti-TMV activity on tobacco, protection mode; format: in vivo, tobacco mosaic virus; conditions: 100 μg/mL; for inhibition at 100 µg/mL: Tobacco mosaic virus, read-out: Anti-TMV activity inhibition, Protection effect
[13] = tested on: TMV; test: Anti-TMV activity on tobacco, induction mode (systemic acquired resistance); format: in vivo, tobacco mosaic virus; conditions: 100 μg/mL; for inhibition at 100 µg/mL: Tobacco mosaic virus, read-out: Anti-TMV activity inhibition, Induction effect

| SMILES | inhibition at 50 µg/mL ([1]; 50 μg/mL, A. solani) [%] | inhibition at 50 µg/mL ([2]; 50 μg/mL, C. arachidicola) [%] | inhibition at 50 µg/mL [4] [%] | inhibition at 50 µg/mL ([5]; 50 μg/mL, B. cinerea) [%] | inhibition at 50 µg/mL [5] [%] | inhibition at 50 µg/mL ([6]; 50 μg/mL, S. sclerotiorum) [%] | inhibition at 50 µg/mL [6] [%] | inhibition at 50 µg/mL ([7]; 50 μg/mL, R. cerealis) [%] | inhibition at 50 µg/mL [7] [%] | inhibition at 50 µg/mL [8] [%] | inhibition at 100 µg/mL [10] [%] | inhibition at 100 µg/mL [11] [%] | inhibition at 100 µg/mL [12] [%] | melting point [°C] | inhibition at 100 µg/mL [13] [%] | inhibition at 50 µg/mL [1] [%] | Fungicidal activity inhibition, GZ [3] [%] | Fungicidal activity inhibition, PI [9] [%] | also measured |
| --- | --- | --- | --- | --- | --- | --- | --- | --- | --- | --- | --- | --- | --- | --- | --- | --- | --- | --- | --- |
| CO/N=C(/C(=O)N[C@@H](C)CSC)c1ccccc1CO/N=C(\C)c1snc(Cl)c1Cl [CL04-22F] | 16.4 | 12.5 | 32.8 | 45.5 | > 45 | 52.9 | > 40 | 76 | > 50 | 15.2 | 1.52 ± 0.62 | 0 | 23.8 ± 3.42 | 35 to 37 |  |  |  |  | inhibition at 50 µg/mL ([3]; Fusarium graminearum, read-out: Fungicidal activity inhibition, GZ, 50 μg/mL, G. zeae): > 30%; inhibition at 50 µg/mL [9]: 17.1% |
| CO/N=C(/C(=O)NC1CC1)c1ccccc1CO/N=C(\N)c1snc(Cl)c1Cl [CL04-25B] | 21.3 | 28 | 22.8 | 36.8 |  | 73.3 | > 40 | 85.4 | > 50 | 18.9 | 20.5 ± 1.84 | 0 | 19.6 ± 3.36 |  | 18.6 ± 3.76 |  |  |  | inhibition at 50 µg/mL [9]: 33.3% |
| CNC(=O)/C(=N/OC)c1ccccc1CO/N=C(\N)c1snc(Cl)c1Cl [CL04-25C] | 34.4 | 44 | 40.4 | 57.9 | > 45 | 66.7 | > 40 | 100 |  | 83.8 | 14.7 ± 4.84 | 0 | > 40 | 122 to 124 |  | > 30 | 100 | 100 | inhibition at 50 µg/mL [2]: > 30% |
| CO/N=C(/C(=O)NC1CC1)c1ccccc1CO/N=C(C)/C=C/c1snc(Cl)c1Cl [CL04-32C] | 47.5 | 60 | 71.9 | 57.9 | > 45 | 73.3 | > 40 | 70.7 | > 50 | 67.6 | 31.6 ± 3.91 | > 30 | 19 ± 0.72 | 95 to 97 | 16 ± 7.71 | > 30 |  | 100 | inhibition at 50 µg/mL [2]: > 30% |
| CNC(=O)/C(=N/OC)c1ccccc1CO/N=C(C)/C=C/c1snc(Cl)c1Cl [CL04-32D] | 54.1 | 84 | 64.9 | 84.2 | > 45 | 73.3 | > 40 | 85.4 | > 50 | 89.2 | 1.52 ± 0.62 |  | 39.1 ± 2.73 | 137 to 139 | > 30 | > 30 | 100 | 100 |  |
| CO/C=C(/C(=O)OC)c1ccccc1CO/N=C(C)/C=C/c1ccc(Cl)cc1 [Enestroburin, reference compound] |  |  |  |  |  |  |  |  |  |  |  |  |  |  |  |  | 21.54 | 32.97 | Fungicidal activity inhibition, AS [1]: 50.00%; Fungicidal activity inhibition, CA [2]: 55.22%; Fungicidal activity inhibition, PP [4]: 59.09%; Fungicidal activity inhibition, BC [5]: 48.57%; Fungicidal activity inhibition, SS [6]: 44.00%; Fungicidal activity inhibition, RC [7]: 73.97%; Fungicidal activity inhibition, PS [8]: 57.50% |
| N#Cc1ccccc1NC(=O)c1snc(Cl)c1Cl [Isotianil, reference compound] |  |  |  |  |  |  |  |  |  |  |  |  |  |  |  |  |  |  | Anti-TMV activity inhibition, Curative effect [10]: 27.31 ± 2.12%; Anti-TMV activity inhibition, Inactivation effect [11]: 20.77 ± 7.30%; Anti-TMV activity inhibition, Protection effect [12]: 24.80 ± 5.85%; Anti-TMV activity inhibition, Induction effect [13]: 44.44 ± 5.18% |
| Nc1ccc(S(=O)(=O)Nc2nccs2)cc1 [SZG-7, reference compound] |  |  |  |  |  |  |  |  |  |  |  |  |  |  | 79 ± 2.27 |  |  |  |  |
| Cc1ccc(NC(=O)c2snnc2C)cc1Cl [TDL, Tiadinil, reference compound] |  |  |  |  |  |  |  |  |  |  |  |  |  |  | 65 ± 2 |  |  |  |  |
